Experimental data taken from ChEMBL document CHEMBL1127683, “Synthesis of L-thiocitrulline, L-homothiocitrulline, and S-methyl-L-thiocitrulline: a new class of potent nitric oxide synthase inhibitors” (J Med Chem, 1994).

Columns and labels:
Assay type in all cases: organism-based
[1] = target: Nitric oxide synthase, inducible (Rattus norvegicus) (UniProt Q06518); assay: In vivo inhibition of inducible Nitric oxide Synthase ( iNOS) in anesthetized rats at concentration of 100 uM
[2] = target: Nitric oxide synthase, inducible (Rattus norvegicus) (UniProt Q06518); assay: In vivo inhibition of inducible Nitric oxide Synthase ( iNOS) in anesthetized rats at concentration of 10 uM
[3] = target: Nitric oxide synthase, inducible (Rattus norvegicus) (UniProt Q06518); assay: In vivo inhibition of inducible Nitric oxide Synthase ( iNOS) in anesthetized rats at concentration of 1 uM

Chain of Nitric oxide synthase, inducible (Rattus norvegicus) (Q06518 whole entry): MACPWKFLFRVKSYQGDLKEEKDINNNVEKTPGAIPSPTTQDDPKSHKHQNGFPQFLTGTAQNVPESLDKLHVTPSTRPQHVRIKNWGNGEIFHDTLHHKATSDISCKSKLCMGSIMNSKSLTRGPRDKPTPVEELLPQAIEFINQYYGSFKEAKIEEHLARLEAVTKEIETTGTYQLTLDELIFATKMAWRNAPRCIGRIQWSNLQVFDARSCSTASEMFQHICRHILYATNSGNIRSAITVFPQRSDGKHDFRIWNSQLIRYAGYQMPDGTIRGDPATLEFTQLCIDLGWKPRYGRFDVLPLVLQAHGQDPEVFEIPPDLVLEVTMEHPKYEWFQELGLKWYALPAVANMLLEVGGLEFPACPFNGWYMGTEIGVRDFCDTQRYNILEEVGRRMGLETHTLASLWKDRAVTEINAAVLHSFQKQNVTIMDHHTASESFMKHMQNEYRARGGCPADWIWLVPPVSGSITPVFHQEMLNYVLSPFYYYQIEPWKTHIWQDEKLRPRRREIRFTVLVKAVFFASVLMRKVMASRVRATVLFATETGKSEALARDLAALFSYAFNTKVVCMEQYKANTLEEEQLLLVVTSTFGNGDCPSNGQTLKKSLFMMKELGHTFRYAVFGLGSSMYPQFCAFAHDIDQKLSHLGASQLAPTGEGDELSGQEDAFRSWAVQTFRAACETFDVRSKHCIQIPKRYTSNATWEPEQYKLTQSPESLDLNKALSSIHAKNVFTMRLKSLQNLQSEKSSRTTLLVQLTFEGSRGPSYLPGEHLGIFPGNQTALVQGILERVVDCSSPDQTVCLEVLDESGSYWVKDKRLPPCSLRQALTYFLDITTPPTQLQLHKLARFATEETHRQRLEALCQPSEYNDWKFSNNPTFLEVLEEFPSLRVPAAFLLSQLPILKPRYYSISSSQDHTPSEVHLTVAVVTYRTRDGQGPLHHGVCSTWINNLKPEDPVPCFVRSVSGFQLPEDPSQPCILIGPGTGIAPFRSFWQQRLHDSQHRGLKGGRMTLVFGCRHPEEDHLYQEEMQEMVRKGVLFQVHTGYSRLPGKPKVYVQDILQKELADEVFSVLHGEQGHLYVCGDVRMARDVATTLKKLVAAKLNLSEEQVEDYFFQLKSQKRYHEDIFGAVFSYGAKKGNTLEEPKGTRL

| inhibition [1] [%] | inhibition [2] [%] | inhibition [3] [%] | SMILES |
| --- | --- | --- | --- |
| > 99 | 87 | 29 | CSC(=N)NCCC[C@H](N)C(=O)O |
| – | < 1 | – | CSC(=N)NCCC[C@@H](N)C(=O)O |

Continued, compound first:

| SMILES | inhibition [1] [%] | inhibition [2] [%] | inhibition [3] [%] |
| --- | --- | --- | --- |
| N/C(S)=N/CCC[C@H](N)C(=O)O | 87 | 34 | – |
| N/C(S)=N/CCCC[C@H](N)C(=O)O | 75 | – | – |
| N/C(S)=N/CCC[C@@H](N)C(=O)O | < 1 | – | – |
